Data from ChEMBL document CHEMBL3393060, “Inhibitors of c-Jun N-terminal kinases: an update” (J Med Chem, 2015).
One block for each molecule: values may come before it.

Key:
[1] = molecular target: T1, Mitogen-activated protein kinase 10 (Homo sapiens, UniProt P53779); assay: Inhibition of JNK3 (unknown origin) by time-resolved fluorescence assay
[2] = molecular target: T2, Mitogen-activated protein kinase 8 (Homo sapiens, UniProt P45983); assay: Inhibition of JNK1 (unknown origin) by time-resolved fluorescence assay
[3] = Half life in rat at 1 mg/kg, iv and 2 mg/kg, po; format: ADME, organism-based; settings: in vivo
[4] = Oral bioavailability in rat at 2 mg/kg; format: ADME, organism-based; settings: in vivo
[5] = Clearance in rat at 1 mg/kg, iv and 2 mg/kg, po; format: ADME, organism-based; settings: in vivo
[6] = molecular target: Mitogen-activated protein kinase 10 (Rattus norvegicus, UniProt P49187); assay: Inhibition of JNK3-mediated c-jun phosphorylation in rat INS1 cells; format: cell-based
[7] = molecular target: T3, Mitogen-activated protein kinase 9 (Homo sapiens, UniProt P45984); assay: Inhibition of JNK2 (unknown origin) by time-resolved fluorescence assay
MAP kinase p38 = MAP kinase p38 (Homo sapiens, UniProt O15264+Q15759+Q16539+P53778); assay: Inhibition of p38 (unknown origin); format: protein assay
[8] = molecular target: T1, Mitogen-activated protein kinase 10; assay: Inhibition of JNK3-mediated c-jun phosphorylation in human HeLa cells after 1 hr incubation; format: cell-based
[9] = molecular target: T1, Mitogen-activated protein kinase 10; assay: Inhibition of JNK3-mediated c-jun phosphorylation in human A375 cells after 1 hr incubation; format: cell-based, A-375
[10] = molecular target: T2, Mitogen-activated protein kinase 8; assay: Inhibition of JNK1 (unknown origin) after 1 hr incubation
[11] = molecular target: T3, Mitogen-activated protein kinase 9; assay: Inhibition of JNK2 (unknown origin)
[12] = molecular target: T2, Mitogen-activated protein kinase 8; assay: Inhibition of JNK1 (unknown origin)
[13] = molecular target: MAP kinase-interacting serine/threonine-protein kinase 2 (Homo sapiens, UniProt Q9HBH9); assay: Inhibition of MKNK2 (unknown origin) by KINOMEScan assay
[14] = molecular target: Casein kinase I isoform delta (Homo sapiens, UniProt P48730); assay: Inhibition of CK1delta (unknown origin) by KINOMEScan assay
[15] = molecular target: Phosphatidylinositol 4,5-bisphosphate 3-kinase catalytic subunit gamma isoform (Homo sapiens, UniProt P48736); assay: Inhibition of PI3Kgamma (unknown origin) by KINOMEScan assay
[16] = molecular target: Mast/stem cell growth factor receptor Kit (Homo sapiens, UniProt P10721); assay: Inhibition of KIT (unknown origin)
Cytochrome P450 2E1 = Cytochrome P450 2E1 (Homo sapiens, UniProt P05181); assay: Inhibition of CYP2E1 (unknown origin); format: ADME
[17] = Neuroprotective effect against MPP+-induced cell death in primary cultures of mouse mesencephalic dopaminergic neurons […] single dose after 8 hrs; format: functional
[18] = molecular target: Platelet-derived growth factor receptor beta (Homo sapiens, UniProt P09619); assay: Inhibition of PDGFRbeta (unknown origin)
Cytochrome P450 2C8 = Cytochrome P450 2C8 (Homo sapiens, UniProt P10632); assay: Inhibition of CYP2C8 (unknown origin); format: ADME
[19] = molecular target: Non-receptor tyrosine-protein kinase TYK2 (Homo sapiens, UniProt P29597); assay: Inhibition of TYK2 (unknown origin)
Rattus norvegicus [20] = species on record: Rattus norvegicus; assay: Neuroprotective effect against D-amphetamine-induced circling in rats assessed as reduction in behavioral deficits; format: functional
Cytochrome P450 2C19 = Cytochrome P450 2C19 (Homo sapiens, UniProt P33261); assay: Inhibition of CYP2C19 (unknown origin); format: ADME
Cytochrome P450 2C9 = Cytochrome P450 2C9 (Homo sapiens, UniProt P11712); assay: Inhibition of CYP2C9 (unknown origin); format: ADME
Cytochrome P450 3A4 = Cytochrome P450 3A4 (Homo sapiens, UniProt P08684); assay: Inhibition of CYP3A4 (unknown origin); format: ADME
[21] = molecular target: Mast/stem cell growth factor receptor Kit (Homo sapiens, UniProt P10721, V559D); assay: Inhibition of KIT V559D (unknown origin)
Cytochrome P450 2B6 = Cytochrome P450 2B6 (Homo sapiens, UniProt P20813); assay: Inhibition of CYP2B6 (unknown origin); format: ADME
Cytochrome P450 2D6 = Cytochrome P450 2D6 (Homo sapiens, UniProt P10635); assay: Inhibition of CYP2D6 (unknown origin); format: ADME
Rattus norvegicus [22] = assay: Protective activity in rat model of myocardial ischemia-reperfusion injury assessed as reduction in infarct volume at 5 mg/kg; format: functional
Cytochrome P450 2A6 = Cytochrome P450 2A6 (Homo sapiens, UniProt P11509); assay: Inhibition of CYP2A6 (unknown origin); format: ADME
Cytochrome P450 1A2 = Cytochrome P450 1A2 (Homo sapiens, UniProt P05177); assay: Inhibition of CYP1A2 (unknown origin); format: ADME
[23] = molecular target: T2, Mitogen-activated protein kinase 8; assay: Inhibition of JNK1 (unknown origin) by JIP-FP displacement assay
[24] = molecular target: Leucine-rich repeat serine/threonine-protein kinase 2 (Homo sapiens, UniProt Q5S007, G2019S); assay: Inhibition of LRRK2 G2019S mutant (unknown origin)
[25] = molecular target: T3, Mitogen-activated protein kinase 9; assay: Inhibition of JNK2 (unknown origin) by JIP-FP displacement assay
[26] = molecular target: T1, Mitogen-activated protein kinase 10; assay: Inhibition of JNK3 (unknown origin) by JIP-FP displacement assay
[27] = Oral bioavailability in rat; format: ADME, organism-based; settings: in vivo
Rattus norvegicus [28] = species on record: Rattus norvegicus; assay: Ratio of drug level brain to plasma in rat; format: ADME, organism-based

Sequence of MAP kinase-interacting serine/threonine-protein kinase 2 (Q9HBH9 whole entry, canonical isoform): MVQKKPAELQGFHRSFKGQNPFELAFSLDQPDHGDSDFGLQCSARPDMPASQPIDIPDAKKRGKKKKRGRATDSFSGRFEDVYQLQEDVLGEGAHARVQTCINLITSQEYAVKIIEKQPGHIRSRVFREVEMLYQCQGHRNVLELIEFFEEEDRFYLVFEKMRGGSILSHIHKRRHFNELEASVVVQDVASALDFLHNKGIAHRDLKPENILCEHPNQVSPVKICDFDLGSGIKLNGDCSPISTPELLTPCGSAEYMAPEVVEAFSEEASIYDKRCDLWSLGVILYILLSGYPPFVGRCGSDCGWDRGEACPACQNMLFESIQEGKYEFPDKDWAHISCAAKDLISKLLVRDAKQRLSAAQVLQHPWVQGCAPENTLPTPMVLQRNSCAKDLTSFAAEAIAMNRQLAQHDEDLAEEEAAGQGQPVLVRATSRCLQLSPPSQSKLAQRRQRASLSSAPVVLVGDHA
Sequence of Mast/stem cell growth factor receptor Kit (Homo sapiens, UniProt P10721) (P10721 whole entry): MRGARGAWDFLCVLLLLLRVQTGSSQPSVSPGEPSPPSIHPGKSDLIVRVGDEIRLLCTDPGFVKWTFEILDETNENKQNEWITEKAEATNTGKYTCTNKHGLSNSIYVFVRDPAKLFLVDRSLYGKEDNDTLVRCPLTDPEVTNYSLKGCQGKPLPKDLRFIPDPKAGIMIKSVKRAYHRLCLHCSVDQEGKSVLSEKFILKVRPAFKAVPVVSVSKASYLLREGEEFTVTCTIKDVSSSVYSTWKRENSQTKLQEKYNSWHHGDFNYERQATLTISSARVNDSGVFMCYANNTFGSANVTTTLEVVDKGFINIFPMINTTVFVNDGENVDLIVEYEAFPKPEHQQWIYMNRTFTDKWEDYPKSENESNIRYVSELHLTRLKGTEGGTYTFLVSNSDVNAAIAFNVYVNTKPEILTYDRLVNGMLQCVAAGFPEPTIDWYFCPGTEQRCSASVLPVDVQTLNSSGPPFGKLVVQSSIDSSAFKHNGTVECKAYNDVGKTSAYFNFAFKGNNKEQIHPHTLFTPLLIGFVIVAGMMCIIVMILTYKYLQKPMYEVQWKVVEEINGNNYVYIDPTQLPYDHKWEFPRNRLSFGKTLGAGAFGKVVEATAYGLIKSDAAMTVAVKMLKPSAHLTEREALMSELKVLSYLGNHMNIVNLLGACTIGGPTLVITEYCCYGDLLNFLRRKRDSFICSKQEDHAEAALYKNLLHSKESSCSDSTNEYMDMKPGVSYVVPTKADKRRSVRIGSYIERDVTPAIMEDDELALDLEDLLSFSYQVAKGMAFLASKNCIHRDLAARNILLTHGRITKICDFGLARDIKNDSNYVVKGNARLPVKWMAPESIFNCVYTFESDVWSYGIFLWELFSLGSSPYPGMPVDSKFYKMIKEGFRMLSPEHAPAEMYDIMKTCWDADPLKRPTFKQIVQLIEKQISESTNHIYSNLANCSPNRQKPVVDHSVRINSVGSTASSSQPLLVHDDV
T1 sequence (P53779 whole entry): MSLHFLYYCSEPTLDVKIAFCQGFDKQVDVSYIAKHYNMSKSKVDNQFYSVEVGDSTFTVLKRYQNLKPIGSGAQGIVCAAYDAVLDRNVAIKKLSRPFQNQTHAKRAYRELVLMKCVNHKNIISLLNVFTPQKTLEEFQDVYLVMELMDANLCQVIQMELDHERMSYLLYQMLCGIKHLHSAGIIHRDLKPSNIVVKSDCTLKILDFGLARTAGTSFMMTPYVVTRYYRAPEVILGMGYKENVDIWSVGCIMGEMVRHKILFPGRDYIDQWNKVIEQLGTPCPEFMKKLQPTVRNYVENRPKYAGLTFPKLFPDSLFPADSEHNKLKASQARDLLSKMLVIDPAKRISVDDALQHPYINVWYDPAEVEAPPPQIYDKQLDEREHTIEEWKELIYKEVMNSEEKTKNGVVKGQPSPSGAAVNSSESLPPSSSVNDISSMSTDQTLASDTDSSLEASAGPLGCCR
T3 sequence (P45984 whole entry): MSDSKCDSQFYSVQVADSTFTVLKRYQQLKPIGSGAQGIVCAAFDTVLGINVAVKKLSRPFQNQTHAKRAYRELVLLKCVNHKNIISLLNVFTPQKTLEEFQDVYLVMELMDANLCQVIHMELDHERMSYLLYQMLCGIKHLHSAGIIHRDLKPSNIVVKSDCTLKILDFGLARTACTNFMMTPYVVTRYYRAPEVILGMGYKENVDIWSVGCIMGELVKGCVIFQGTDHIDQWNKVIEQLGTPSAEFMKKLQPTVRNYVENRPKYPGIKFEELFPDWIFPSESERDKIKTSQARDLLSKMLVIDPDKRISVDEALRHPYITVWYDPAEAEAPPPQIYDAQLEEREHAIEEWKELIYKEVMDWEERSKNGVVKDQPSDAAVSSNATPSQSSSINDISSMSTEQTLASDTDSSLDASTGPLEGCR
T2 sequence (P45983 whole entry): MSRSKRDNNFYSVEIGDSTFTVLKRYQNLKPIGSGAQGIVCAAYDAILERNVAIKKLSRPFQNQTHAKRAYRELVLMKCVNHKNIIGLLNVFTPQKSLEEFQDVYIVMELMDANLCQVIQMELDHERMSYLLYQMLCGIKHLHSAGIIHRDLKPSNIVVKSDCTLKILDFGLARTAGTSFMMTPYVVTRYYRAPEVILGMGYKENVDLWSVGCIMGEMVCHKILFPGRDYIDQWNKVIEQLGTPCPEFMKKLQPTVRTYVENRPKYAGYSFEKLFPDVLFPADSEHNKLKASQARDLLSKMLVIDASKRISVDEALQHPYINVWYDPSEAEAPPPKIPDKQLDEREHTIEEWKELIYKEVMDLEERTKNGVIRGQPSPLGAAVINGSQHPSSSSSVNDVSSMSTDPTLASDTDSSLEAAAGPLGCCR
Sequence of Casein kinase I isoform delta (P48730 whole entry, canonical isoform): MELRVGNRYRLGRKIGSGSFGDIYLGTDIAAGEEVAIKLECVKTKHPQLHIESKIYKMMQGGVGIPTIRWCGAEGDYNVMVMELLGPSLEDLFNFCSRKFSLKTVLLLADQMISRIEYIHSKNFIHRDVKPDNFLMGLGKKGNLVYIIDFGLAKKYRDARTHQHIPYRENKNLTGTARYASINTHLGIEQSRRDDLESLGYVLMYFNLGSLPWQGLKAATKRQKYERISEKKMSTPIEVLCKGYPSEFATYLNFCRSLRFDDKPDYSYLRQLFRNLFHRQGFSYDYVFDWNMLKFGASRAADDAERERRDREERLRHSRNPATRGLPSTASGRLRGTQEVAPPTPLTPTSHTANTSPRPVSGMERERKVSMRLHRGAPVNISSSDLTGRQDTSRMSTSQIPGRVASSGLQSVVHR
Sequence of Mitogen-activated protein kinase 10 (Rattus norvegicus, UniProt P49187) (P49187 whole entry): as the sequence (P53779 whole entry) above, with Q27H, Y32S, I33V, A34V counted along it
Sequence of Phosphatidylinositol 4,5-bisphosphate 3-kinase catalytic subunit gamma isoform (P48736 whole entry, canonical isoform): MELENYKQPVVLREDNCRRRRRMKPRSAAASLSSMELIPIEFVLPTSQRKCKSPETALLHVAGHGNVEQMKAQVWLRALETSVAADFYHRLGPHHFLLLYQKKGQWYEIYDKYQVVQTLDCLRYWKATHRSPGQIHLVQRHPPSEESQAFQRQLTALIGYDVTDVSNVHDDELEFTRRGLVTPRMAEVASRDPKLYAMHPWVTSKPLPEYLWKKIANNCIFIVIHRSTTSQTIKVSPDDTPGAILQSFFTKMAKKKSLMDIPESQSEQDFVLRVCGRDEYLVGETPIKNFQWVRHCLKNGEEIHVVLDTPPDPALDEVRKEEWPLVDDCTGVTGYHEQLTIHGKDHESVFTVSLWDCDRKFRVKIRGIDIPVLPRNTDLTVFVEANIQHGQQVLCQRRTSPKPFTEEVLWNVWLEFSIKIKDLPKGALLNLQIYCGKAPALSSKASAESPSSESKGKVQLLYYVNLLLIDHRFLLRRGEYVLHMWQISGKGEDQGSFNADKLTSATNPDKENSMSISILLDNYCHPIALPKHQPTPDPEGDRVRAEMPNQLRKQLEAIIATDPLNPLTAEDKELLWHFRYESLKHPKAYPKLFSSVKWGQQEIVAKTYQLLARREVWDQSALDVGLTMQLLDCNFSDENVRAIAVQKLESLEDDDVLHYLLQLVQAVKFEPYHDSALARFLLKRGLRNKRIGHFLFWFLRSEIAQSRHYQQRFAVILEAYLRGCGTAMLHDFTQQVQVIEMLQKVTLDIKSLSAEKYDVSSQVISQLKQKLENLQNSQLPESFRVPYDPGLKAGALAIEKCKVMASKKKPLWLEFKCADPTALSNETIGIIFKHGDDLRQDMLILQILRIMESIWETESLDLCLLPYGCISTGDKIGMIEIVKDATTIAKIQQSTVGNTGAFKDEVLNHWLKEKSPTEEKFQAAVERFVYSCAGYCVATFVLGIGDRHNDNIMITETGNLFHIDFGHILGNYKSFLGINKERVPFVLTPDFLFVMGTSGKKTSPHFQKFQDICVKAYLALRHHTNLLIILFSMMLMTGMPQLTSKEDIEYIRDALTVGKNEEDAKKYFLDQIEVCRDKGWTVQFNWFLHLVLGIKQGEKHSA
Sequence of Cytochrome P450 2E1 (P05181 whole entry): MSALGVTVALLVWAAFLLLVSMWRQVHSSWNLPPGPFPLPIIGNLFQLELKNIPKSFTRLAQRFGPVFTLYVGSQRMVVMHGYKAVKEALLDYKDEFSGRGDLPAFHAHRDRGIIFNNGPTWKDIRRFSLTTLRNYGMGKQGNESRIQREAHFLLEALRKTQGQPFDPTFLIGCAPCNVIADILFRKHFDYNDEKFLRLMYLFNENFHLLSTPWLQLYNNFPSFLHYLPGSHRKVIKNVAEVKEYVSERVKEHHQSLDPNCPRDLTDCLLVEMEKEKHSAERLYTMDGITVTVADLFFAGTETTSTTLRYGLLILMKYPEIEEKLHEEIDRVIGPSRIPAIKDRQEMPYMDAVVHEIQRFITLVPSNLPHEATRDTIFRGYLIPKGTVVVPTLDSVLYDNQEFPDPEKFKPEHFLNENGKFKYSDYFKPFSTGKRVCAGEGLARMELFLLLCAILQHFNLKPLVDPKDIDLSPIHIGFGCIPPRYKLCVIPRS

IC50 [6]: 310 nM
IC50 [7]: 90 nM
SMILES: Cn1cc(-c2ccc3cnc(Nc4ccc(-n5cnc(N6CCOCC6)n5)cc4)nc3c2)cn1

IC50 [2]: 17 nM
IC50 (MAP kinase p38): > 20000 nM
IC50 [6]: 1300 nM
Kd [16]: > 20000 nM
SMILES: COc1cc(NC(=O)c2cccc(-n3cc(NC(=O)Nc4cccc(C)c4)cn3)c2)cc(OC)c1OC

IC50 [1]: 32 nM
IC50 [2]: 101 nM
IC50 [7]: 59 nM
SMILES: CN(C)c1ccc(-c2cnc3[nH]cc(-c4cn[nH]c4)c3c2)cc1

IC50 [2]: 0.24 nM
SMILES: NC(=O)c1ccccc1Nc1nc(Nc2ccc(N3CCCC3=O)cc2)ncc1Cl

IC50 [1]: 85 nM
IC50 [2]: 74 nM
IC50 [7]: 123 nM
SMILES: Cn1cc(-c2c[nH]c3ncc([C@H]4CC[C@H](N5CCOCC5)CC4)cc23)cn1

IC50 [1]: 0.8 nM
IC50 [2]: 3 nM
bioavailability [27]: 30%
IC50 [6]: 3 nM
BPR (Rattus norvegicus [28]): 17%
SMILES: COc1cc(N2CCOCC2)ccc1Nc1ncc(Cl)c(Nc2ccccc2C(N)=O)n1

Kd [13]: 920 nM
Kd [14]: 380 nM
Kd [15]: 470 nM
SMILES: O/N=C1/c2ccccc2-c2nc3ccccc3nc21

IC50 [2]: 0.8 nM
SMILES: COc1ccc(CC(=O)Nc2cc3cc(-c4cnn(C)c4)ccc3cn2)cc1

IC50 (MAP kinase p38): > 20000 nM
IC50 [6]: 210 nM
SMILES: CS(=O)(=O)Nc1ccc(-c2ccnc(Nc3ccc(-n4ccnn4)cc3)n2)cc1

IC50 [1]: 0.3 nM
IC50 [2]: 1 nM
SMILES: NC(=O)c1ccccc1Nc1nc(Nc2ccc(N3CCOCC3)cc2)ncc1Cl

Kd [16]: < 1000 nM
SMILES: O=C(NCCN1CCOCC1)c1ccnc(-n2ncc3cc(Nc4ccccc4Cl)ccc32)c1

The remaining lines, values behind:

SMILES: O=C(NCCN1CCN(C2CCC2)CC1)c1cccc(-n2ncc3cc(Nc4ccccc4Cl)ccc32)c1
IC50 [1]: 40 nM
IC50 [2]: 970 nM
half-life [3]: 3.3 min
bioavailability [4]: 27%
clearance [5]: 25 mL/min/kg

SMILES: Fc1cc(-c2cc[nH]/c(=N/c3ccc(-n4cnc(N5CCOCC5)n4)cc3)n2)cc(N2CCOCC2)c1
IC50 (MAP kinase p38): > 20000 nM
IC50 [6]: 54 nM
IC50 [7]: 99 nM

SMILES: COc1cc(NC(=O)c2cccc(-n3cc(NC(=O)Nc4ccccc4)cn3)c2)cc(OC)c1OC
IC50 (MAP kinase p38): 3700 nM
IC50 [6]: 1200 nM

SMILES: Cn1cc(-c2c[nH]c3ncc([C@H]4CC[C@H](N5CCCOCC5)CC4)cc23)cn1
IC50 [2]: 166 nM
IC50 [7]: 339 nM

SMILES: CN(C)C/C=C/C(=O)Nc1cccc(C(=O)Nc2ccc(Nc3nccc(-c4c(-c5ccccc5)nn5ccccc45)n3)cc2)c1
IC50 [8]: 48 nM
IC50 [9]: 9 nM
IC50 [10]: 1.3 nM

SMILES: O=C(O/N=C1/c2ccccc2-c2nc3ccccc3nc21)c1ccco1
Kd [11]: 290 nM
Kd [12]: 240 nM
Kd [13]: 1200 nM
Kd [14]: 560 nM
Kd [15]: 430 nM

SMILES: Cc1ccc(-c2ncn(-c3ccc(Nc4nccc(-c5cccc(N6CCOCC6)c5)n4)cc3)n2)cn1
IC50 (Cytochrome P450 2E1): > 50000 nM
Activity [17]: >90%
IC50 [1]: 159 nM
IC50 [2]: 67 nM
Kd [18]: < 1000 nM
IC50 (Cytochrome P450 2C8): > 50000 nM
Kd [19]: < 1000 nM
inhibition (INH) (Rattus norvegicus [20]): 90%
IC50 (MAP kinase p38): > 20000 nM
IC50 [6]: 216 nM
IC50 (Cytochrome P450 2C19): > 50000 nM
IC50 (Cytochrome P450 2C9): > 50000 nM
IC50 (Cytochrome P450 3A4): > 50000 nM
Kd [21]: < 1000 nM
IC50 (Cytochrome P450 2B6): > 50000 nM
IC50 (Cytochrome P450 2D6): > 50000 nM
inhibition in vivo at 5 mg/kg (Rattus norvegicus [22]): 34%
IC50 [7]: 283 nM
IC50 (Cytochrome P450 2A6): > 50000 nM
Kd [16]: > 20000 nM
IC50 (Cytochrome P450 1A2): > 50000 nM

SMILES: COc1ccc(C(=O)O/N=C2/c3ccccc3-c3nc4ccccc4nc32)cc1OC
Kd [11]: 280 nM
Kd [12]: 270 nM
Kd [13]: 10000 nM
Kd [14]: 5700 nM
Kd [15]: 12000 nM

SMILES: COc1ccc2c(c1)OCC(C(=O)NC(=O)N(CC(=O)NCCCCCCNC(=O)c1ccc(-c3n[nH]c4ccccc34)cc1)CC(C)C)O2 (stereo not given)
IC50 [23]: 109 nM
IC50 [24]: 99 nM
IC50 [6]: 2800 nM
IC50 [25]: 336 nM
IC50 [26]: 12 nM

SMILES: CN(C)C/C=C/C(=O)Nc1ccc(C(=O)Nc2cccc(Nc3nccc(-c4cccnc4)n3)c2)cc1
IC50 [9]: 2400 nM

SMILES: CN(C)C/C=C/C(=O)Nc1cccc(C(=O)Nc2ccc(Nc3nccc(-c4cccnc4)n3)cc2)c1
IC50 [10]: 1.5 nM
